Laboratory results published in US20210254056A1, “IDENTIFICATION AND TARGETED MODULATION OF GENE SIGNALING NETWORKS” (CAMP4 THERAPEUTICS CORPORATION, priority 2017, published 2021).

B1: BMP4 (protein, UniProt P12644 293-408, looked up)
Bone morphogenetic protein 4: SPKHHSQRARKKNKNCRRHSLYVDFSDVGWNDWIVAPPGYQAFYCHGDCPFPLADHLNSTNHAIVQTLVNSVNSSIPKACCVPTELSAISMLYLDEYDKVVLKNYQEMVVEGCGCR
B2: Wnt3a (protein, UniProt P56704 19-352, looked up)
Protein Wnt-3a: SYPIWWSLAVGPQYSSLGSQPILCASIPGLVPKQLRFCRNYVEIMPSVAEGIKIGIQECQHQFRGRRWNCTTVHDSLAIFGPVLDKATRESAFVHAIASAGVAFAVTRSCAEGTAAICGCSSRHQGSPGKGWKWGGCSEDIEFGGMVSREFADARENRPDARSAMNRHNNEAGRQAIASHMHLKCKCHGLSGSCEVKTCWWSQPDFRAIGDFLKDKYDSASEMVVEKHRESRGWVETLRPRYTYFKVPTERDLVYYEASPNFCEPNPETGSFGTRDRTCNVSSHGIDGCDLLCCGRGHNARAERRREKCRCVFHWCCYVSCQECTRVYDVHTCK
B3: Anti-mullerian hormone (protein, UniProt P03971 452-560, looked up)
Muellerian-inhibiting factor: SAGATAADGPCALRELSVDLRAERSVLIPETYQANNCQGVCGWPQSDRNPRYGNHVVLLLKMQVRGAALARPPCCVPTAYAGKLLISLSEERISAHHVPNMVATECGCR
B4: Nodal (protein, UniProt Q96S42 238-347, looked up)
Nodal homolog: HHLPDRSQLCRKVKFQVDFNLIGWGSWIIYPKQYNAYRCEGECPNPVGEEFHPTNHAYIQSLLKRYQPHRVPSTCCAPVKTKPLSMLYVDNGRVLLDHHKDMIVEECGCL
B5: GDF10 (BMP3b) (protein, UniProt P55107 369-478, looked up)
Growth/differentiation factor …: QWDEPRVCSRRYLKVDFADIGWNEWIISPKSFDAYYCAGACEFPMPKIVRPSNHATIQSIVRAVGIIPGIPEPCCVPDKMNSLGVLFLDENRNVVLKVYPNMSVDTCACR

These molecules were tested on hepatocytes (assay: RNA-seq of hepatocytes stimulated with the compounds of Table 68). Details: not given.

Q: Which “# of genes having significantly altered expression” value does the source give for `C[C@H]1[C@H]2N(C(=O)CN(C)N2C(=O)NCc2ccccc2)[C@@H](Cc2ccc(OP(=O)(O)O)cc2)C(=O)N1Cc1cccc2cccnc12` [PRI-724] here?
A: 88

Q: `CCCCC/C=C\C/C=C\C/C=C\C/C=C\CCCC(=O)NCCCl` [ACEA] was tested. Which “# of genes having significantly altered expression” value did it give?
A: 2

Q: `CCCCCCCCCCCC(=O)OC[C@H](COP(=O)([O-])OCC[N+](C)(C)C)OC(=O)CCCCCCCCCCC` [DLPC] was tested. Which “# of genes having significantly altered expression” value did it give?
A: 4

Q: With `OCc1ccc(-c2ccc(-c3ccc(CO)s3)o2)s1` [RITA (NSC 652287)] as the molecule, how does the “# of genes having significantly altered expression” value read?
A: 105

Q: With Varenicline tartrate as the molecule, how does the “# of genes having significantly altered expression” value read?
A: 7

Q: With `CCC1=C(C)CN(C(=O)NCCc2ccc(S(=O)(=O)NC(=O)N[C@H]3CC[C@H](C)CC3)cc2)C1=O` [Gilmepiride] as the molecule, how does the “# of genes having significantly altered expression” value read?
A: 39

Q: How did the “# of genes having significantly altered expression” value turn out when `CS[C@H]1SC[C@H]2C(=O)N(C)[C@@H](C(C)C)C(=O)OC[C@@H](NC(=O)c3cnc4ccccc4n3)C(=O)N[C@@H](C)C(=O)N(C)[C@@H]1C(=O)N(C)[C@@H](C(C)C)C(=O)OC[C@@H](NC(=O)c1cnc3ccccc3n1)C(=O)N[C@@H](C)C(=O)N2C` [Echinomycin] was run?
A: 7161

Q: How did the “# of genes having significantly altered expression” value turn out when `c1ccc2c(-c3cnn4cc(-c5ccc(N6CCNCC6)cc5)cnc34)ccnc2c1` [LDN193189] was run?
A: 67

Q: For `C[C@@]1(C(=O)Nc2ccc(F)nc2)CCCN1c1nc(Nc2cc(C3CC3)n[nH]2)c2cccn2n1` [BMS-754807], which “# of genes having significantly altered expression” value is on record?
A: 302

Q: Which “# of genes having significantly altered expression” value does the source give for `CCN(CC)CCCC(C)Nc1ccnc2cc(Cl)ccc12` (stereo not drawn) [Chloroquine phosphate] here?
A: 573

Q: How did the “# of genes having significantly altered expression” value turn out when `CCOC(=O)c1cncn1[C@H](C)c1ccccc1` [Etomidate] was run?
A: 2

Q: How did the “# of genes having significantly altered expression” value turn out when `COc1ccc(C(=O)Nc2sc3c(c2C(N)=O)CCCC3)cc1OC` [TCS 359] was run?
A: 63

Q: For `O=C1NC(=O)/C(=C/c2cccc(C(F)(F)F)c2)S1` [SMI-4a], which “# of genes having significantly altered expression” value is on record?
A: 1436

Q: With `COc1cccc(-c2cc(NCc3ccc4c(c3)OCO4)nc(N)n2)c1` [Wnt agonist 1] as the molecule, how does the “# of genes having significantly altered expression” value read?
A: 138

Q: With `Cc1ccccc1N=Nc1ccc(NC(=O)c2ccnn2C)c(C)c1` [CH223191] as the molecule, how does the “# of genes having significantly altered expression” value read?
A: 198

Q: `Cc1cc(C(C)Nc2ccccc2)c2nc(N3CCOCC3)cc(=O)n2c1` (stereo not drawn) [TGX-221] was tested. Which “# of genes having significantly altered expression” value did it give?
A: 1

Q: For `Cn1cc(-c2ccc3nnc(C(F)(F)c4ccc5ncccc5c4)n3n2)cn1` [JNJ-38877605], which “# of genes having significantly altered expression” value is on record?
A: 64

Q: `[Cl][Co][Cl]` [Cobalt chloride] was tested. Which “# of genes having significantly altered expression” value did it give?
A: 1275

Same assay, conditions: hepatocytes stimulated with the compound; RNA-seq; […]

Q: Which “# of genes having significantly altered expression” value does the source give for `Cc1ccc2nc(NC(=O)CSc3nc4c(c(=O)n3-c3ccccc3)SCC4)sc2c1` [IWP-2] here?
A: 15

Same assay, conditions: hepatocytes stimulated with the compound; RNA-seq; significance: FPKM≥1, q-value≤0.05, log 2 fold change≥1.5

Q: With `CCNC1(C(N)=O)CCN(c2ncnc3c2nc(-c2ccccc2Cl)n3-c2ccc(Cl)cc2)CC1` [Otenabant] as the molecule, how does the “# of genes having significantly altered expression” value read?
A: 36

Q: How did the “# of genes having significantly altered expression” value turn out when `Oc1c2ccccc2c2c3c(cccc13)N=N2` [SP600125] was run?
A: 193

Q: Which “# of genes having significantly altered expression” value does the source give for `CN(C)C/C=C/C(=O)Nc1cc2c(Nc3ccc(F)c(Cl)c3)ncnc2cc1O[C@H]1CCOC1` [Afatinib] here?
A: 2010

Q: For `C=C1/C(=C\C=C2/CCC[C@]3(C)[C@@H]([C@H](C)/C=C/C=C/C(O)(CC)CC)CC[C@@H]23)C[C@@H](O)C[C@@H]1O` [EB1089], which “# of genes having significantly altered expression” value is on record?
A: 68

Q: How did the “# of genes having significantly altered expression” value turn out when `CNC(=O)c1ccccc1Sc1ccc2c(/C=C/c3ccccn3)n[nH]c2c1` [Axitinib] was run?
A: 5

Q: For `COc1cc2c(cc1OC)-c1c(OC)c(OC)cc3ccnc(c13)C2=O` [Oxoglaucine], which “# of genes having significantly altered expression” value is on record?
A: 31

Q: How did the “# of genes having significantly altered expression” value turn out when `C=C(c1ccc(C(=O)O)cc1)c1cc2c(cc1C)C(C)(C)CCC2(C)C` [Bexarotene] was run?
A: 267

Q: For `O=C1CCC(N2C(=O)c3ccccc3C2=O)C(=O)N1` (stereo not drawn) [Thalidomide], which “# of genes having significantly altered expression” value is on record?
A: 3092

Q: With `C=C1/C(=C\C=C2/CCC[C@]3(C)[C@@H]([C@H](C)CCCC(C)(C)O)CC[C@@H]23)C[C@@H](O)C[C@@H]1O` [Calcitrol] as the molecule, how does the “# of genes having significantly altered expression” value read?
A: 1950

Q: For `CNC(=O)c1cc(Oc2ccc(NC(=O)Nc3ccc(Cl)c(C(F)(F)F)c3)c(F)c2)ccn1` [Regorafenib], which “# of genes having significantly altered expression” value is on record?
A: 10

Q: `C[C@@H]1CC(=O)c2c(ccc3c2C(=O)c2cccc(O)c2C3=O)C1` [STA-21] was tested. Which “# of genes having significantly altered expression” value did it give?
A: 6

Q: `OCCn1cc(-c2ccc3c(c2)CC/C3=N\O)c(-c2ccncc2)n1` [GDC-0879] was tested. Which “# of genes having significantly altered expression” value did it give?
A: 274

Q: For `Cc1nc(Nc2ncc(C(=O)Nc3c(C)cccc3Cl)s2)cc(N2CCN(CCO)CC2)n1` [Dasatinib], which “# of genes having significantly altered expression” value is on record?
A: 2970

Q: For `S=C(NCc1ccc2c(c1)OCO2)N1CCN(c2ncnc3c2oc2ccccc23)CC1` [Amuvatinib], which “# of genes having significantly altered expression” value is on record?
A: 2835

Q: Which “# of genes having significantly altered expression” value does the source give for `COc1ccc2[nH]c([S+]([O-])Cc3ncc(C)c(OC)c3C)nc2c1` (stereo not drawn) [Omeprazole] here?
A: 61

Q: Activin was tested. Which “# of genes having significantly altered expression” value did it give?
A: 798

Q: `COCCOc1cnc2ccn([C@H](C)c3nnc4c(F)cc(-c5cnn(C)c5)cn34)c(=O)c2c1` [AMG337] was tested. Which “# of genes having significantly altered expression” value did it give?
A: 3

Q: `Cc1[nH]c(/C=C2\C(=O)Nc3ccc(S(=O)(=O)Cc4c(Cl)cccc4Cl)cc32)c(C)c1C(=O)N1CCC[C@@H]1CN1CCCC1` [PHA-665752] was tested. Which “# of genes having significantly altered expression” value did it give?
A: 1767

Q: How did the “# of genes having significantly altered expression” value turn out when B1 was run?
A: 2218

Q: With B2 as the molecule, how does the “# of genes having significantly altered expression” value read?
A: 1142

Q: With B3 as the molecule, how does the “# of genes having significantly altered expression” value read?
A: 912

Q: For B4, which “# of genes having significantly altered expression” value is on record?
A: 863

Q: With B5 as the molecule, how does the “# of genes having significantly altered expression” value read?
A: 855
